Values quoted from earlier work in patent publication US20240342131A1, “Multivitamin for Cystic Fibrosis Patients Undergoing Cystic Fibrosis Transmembrance Conductance Regulator Gene Modulator Therapy” (priority 2021, published 2024).

Conditions: high doses

O=C1O[C@H]([C@@H](O)CO)C(O)=C1O [vitamin C]
side effect: secretory diarrhea
